According to PubChem BioAssay (NCI):
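Dose response: 5 concentrations. Exposure: 48 h. Format: 96-well plates. Endpoint: linear interpolation; highest concentration if not reached. At the GI50, growth is halved. TGI marks complete inhibition of growth.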

Legend:
Assay in all cases: NCI tumour cell line growth inhibition, 48 h
SNB-75 CNS = tested on: SNB-75 CNS
HCC-2998 colon = tested on: HCC-2998 colon
OVCAR-3 ovarian = tested on: OVCAR-3 ovarian
SF-295 CNS = tested on: SF-295 CNS
MDA-MB-231 breast = tested on: MDA-MB-231 breast
OVCAR-8 ovarian = tested on: OVCAR-8 ovarian
SF-268 CNS = tested on: SF-268 CNS
HL-60(TB) leukemia = tested on: HL-60(TB) leukemia
CCRF-CEM leukemia = tested on: CCRF-CEM leukemia
IGROV1 ovarian = tested on: IGROV1 ovarian
NCI-H522 lung = tested on: NCI-H522 lung

Structure (SMILES)	TGI (SNB-75 CNS) [µM]	TGI (HCC-2998 colon) [µM]	TGI (OVCAR-3 ovarian) [µM]	TGI (SF-295 CNS) [µM]	TGI (MDA-MB-231 breast) [µM]	TGI (OVCAR-8 ovarian) [µM]	TGI (SF-268 CNS) [µM]	TGI (HL-60(TB) leukemia) [µM]	TGI (CCRF-CEM leukemia) [µM]	TGI (IGROV1 ovarian) [µM]	TGI (NCI-H522 lung) [µM]	GI50 (CCRF-CEM leukemia) [µM]
CCOC(=O)[C@H]1C[C@@H](C(=O)c2ccccc2)N2N=C(c3ccc(Br)cc3)C=C[C@H]12	> 100	> 100	> 100	> 100	> 100	> 100	> 100	–	–	–	–	–
C1=CCN(c2ccccc2)CC1	> 100	> 100	61.2	> 100	–	81.2	> 100	90.1	> 100	96.3	30.4	–
N[C@@H]1C[C@H](N)c2c(Cl)sc(Cl)c21	> 100	> 100	> 100	> 100	> 100	> 100	–	–	> 100	> 100	–	–
Cc1nc2ccccc2nc1NS(=O)(=O)c1ccc(N)cc1	> 100	> 100	> 100	> 100	–	> 100	> 100	> 100	> 100	> 100	> 100	–
NN/C(=N\S(=O)(=O)c1cc(Cl)c(Oc2ccc([N+](=O)[O-])cc2Cl)c(Cl)c1)Nc1ccc(Cl)cc1	56.3	–	33	50.4	39.9	60.4	34.2	–	37.5	42.3	–	–
O=C(CCN(CCO)CCO)Nc1ccc2c(c1)C(=O)c1ccc(NC(=O)CCN(CCO)CCO)cc1C2=O	> 100	8.52	51.3	> 100	–	> 100	60.6	45.7	39.5	50.7	19.7	–
CCC(=O)N(c1ccccc1)C(C)CN1CCC(O)(c2ccccc2)CC1 (configuration not stated)	> 100	–	> 100	> 100	> 100	> 100	> 100	> 100	> 100	> 100	> 100	–
CCOC(=O)CCc1c(C(=O)OCC)[nH]c(/C=C2/NC(=O)C(C)=C2CC)c1C	42.7	–	16.1	30.6	48.3	> 100	29.2	25.7	–	47.7	31.8	–
CCOc1ccc(NCC(=O)N2CC(=O)Nc3ccccc32)cc1	> 100	> 100	> 100	> 100	–	> 100	> 100	> 100	> 100	–	> 100	–
CCCCOC(=O)/C(CC(=O)C=C(C)C)=N\NS(=O)(=O)c1ccc(C)cc1	> 100	> 100	> 100	> 100	–	> 100	> 100	> 100	> 100	> 100	> 100	–
CCN(CC)CCCCC1CCN(CC(=O)N2c3ccccc3NC(=O)c3ccccc32)CC1	> 100	> 100	> 100	> 100	–	> 100	> 100	> 100	> 100	–	> 100	–
CC(=O)Nc1ccc(-c2nnc(SCC(=O)Nc3ccccc3Cl)o2)cc1	> 100	> 100	> 100	> 100	–	> 100	> 100	> 100	> 100	> 100	> 100	–
O=c1c2cc(I)ccc2nc(-c2cccs2)n1Nc1ccccc1	–	50.8	6.52	32.9	–	> 100	> 100	> 100	> 100	> 100	> 100	50.7
C1CSCC2(COC2)CS1	> 100	> 100	–	> 100	–	> 100	> 100	–	> 100	–	> 100	–
CN(C)c1ccc(C(C#N)N2CCCN(C(C#N)c3ccc(N(C)C)cc3)C2c2ccc(N(C)C)cc2)cc1 (configuration not stated)	> 100	–	> 100	> 100	> 100	> 100	> 100	> 100	> 100	> 100	> 100	–
CC(C#N)Nc1ccc(Oc2ccc(C(C)(C)c3ccc(Oc4ccc(NC(C)C#N)cc4)cc3)cc2)cc1 (configuration not stated)	> 100	> 100	> 100	> 100	> 100	> 100	> 100	–	–	> 100	–	–
COc1ccc(/C=C2/C(=O)N(C(=O)c3ccc(Cl)cc3)N=C2C)cc1OC	–	> 100	> 100	> 100	–	> 100	> 100	> 100	> 100	> 100	> 100	–
CC(=NNC(=S)Nc1ccccc1C)c1cccc(C(C)=NNC(=S)Nc2ccccc2C)n1	–	> 100	–	> 100	–	> 100	> 100	> 100	> 100	> 100	–	–
O=C(O)Cc1cc(=O)oc2cc(O)c(Cl)cc12	> 100	> 100	> 100	> 100	–	> 100	> 100	> 100	> 100	> 100	> 100	–
CN1CC=C(OP(=O)(NCc2ccccc2)N(CCCl)CCCl)CC1 (configuration not stated)	> 100	> 100	> 100	> 100	> 100	> 100	> 100	> 100	> 100	> 100	–	–
CSc1nc(C)cc(Nc2ccc(O)c(CN3CCCCC3)c2)n1	> 100	–	> 100	> 100	–	> 100	> 100	–	–	> 100	> 100	–
O=C(/C=C/c1ccc(O)c(O)c1)NC(CO)C(=O)O (configuration not stated)	> 100	> 100	> 100	> 100	> 100	> 100	> 100	–	> 100	–	> 100	–
